The nature of this test: Binding affinity to LAR C1536S mutant (unknown origin) assessed as inhibition constant by Michaelis-Menten analysis. Set-up: species or system Homo sapiens.

What is called Ki is the dissociation constant of the complex between target and ligand, obtained from inhibition or displacement. For the compound `CC1(C)Cc2c(O)c(C=O)c3c(c2C1)C(=O)OC(O)C3` (stereo unspecified) [ILLUDALIC ACID], the Ki worked out at 7 µM.
